Laboratory results as given in PubChem BioAssay AID1963980 (Molecular Pharmacology Branch, DTP, NCI, 2024).

Tested on: 475296-252-R-J1-PDC spheroid viability
Experiment: Anticancer human tumor 475296-252-R-J1-PDC patient-derived rectal carcinoma cell line growth inhibition [PI3K]
Conditions: spheroids with HUVEC and MSC; for IC50: curve of first compound; for viability, T/C: stronger effect = lower value
Excerpt: Combinatorial screen of targeted agents with the PI3K inhibitors inavolisib, alpelisib, duvelisib, and copanlisib in multi-cell type tumor spheroids
A high-throughput screen of multi-cell type tumor spheroids was designed to identify active combinations of targeted small molecules and PI3K pathway inhibitors. Complex spheroids include a stromal component modeled by human endothelial cells (HUVEC) and fibroblasts modeled by human mesenchymal stem cells (MSCs). The concentration ranges selected for each drug and investigational agent were based upon clinically achievable concentrations if the clinical Cmax of the agent was known.
Compounds. The drugs and investigational agents: inavolisib (NSC800729), alpelisib (NSC765974), duvelisib (NSC772469), copanlisib (NSC816437), ipatasertib (NSC767898), afuresertib (NSC778305), talazoparib (NSC767125), sapanisertib (NSC764658), selumetinib (NSC741078), tovorafenib (DAY101, NSC766906), vemurafenib (NSC761431), ravoxertinib (NSC781343), sotorasib (NSC818433), MRTX1133 (NSC 836407), abemaciclib (NSC 768073), palbociclib (NSC758247), venetoclax (NSC 766270), SY5609 (NSC837396), enzalutamide (NSC755605), and darolutamide (NSC825331), were obtained from the National Cancer Institute (NCI) Developmental Therapeutics Program Chemical Repository. The FDA-approved anticancer drug set is available from the NCI Developmental Therapeutics Program. […] The stock solutions were prepared in dimethyl sulfoxide (DMSO, Sigma-Aldrich, St. Louis, MO, cat. D2650) at 800-fold the tested concentration and stored at -70 degrees C prior to their use. All drugs and investigational agents were tested over a range starting from a high concentration at or near the clinical Cmax and decreasing in half-log increments. If the clinical Cmax for an agent had not been determined, the highest concentration tested was 10 microM.
Cell Culture. All cells were maintained in an incubator at 37 degrees C and 5% CO2 with 95% humidity. The PDC lines were cultured according to standard operating procedures established by the NCI PDMR (https://pdmr.cancer.gov/sops/default.htm). All PDCs were thawed and cultured in Matrigel-coated flasks prepared with a working solution of 1X Ham's F-12 nutrient mix, without supplementation (Invitrogen, Waltham, MA, cat. 11765054), 100 U/mL penicillin-streptomycin (Invitrogen, cat. 15140122), and 2.5% Matrigel (Corning Inc., Corning, NY, cat. 354248) for the first three passages. The 354836-022-R-J1-PDC, 475296-252-R-J1-PDC, and 997726-040-R-J2-PDC lines were cultured in 6A media, which includes advanced DMEM/F-12 (Thermo Fisher Scientific, cat. 12634028), 10 mM HEPES (Thermo Fisher Scientific, cat. 15630080), 1X GlutaMAX supplement (Thermo Fisher Scientific, cat. 35050061), 0.1 mg/mL primocin (InvivoGen, San Diego, CA, cat. ant-pm-2), 10% defined fetal bovine serum, heat inactivated (HyClone Laboratories Inc., Logan, UT, cat. SH30070.03HI), 50% L-WRN conditioned media (ATCC, cat. CRL-3276), 1.25 mM N-Acetyl-L-cysteine (Sigma-Aldrich, cat. A9165), 10 mM nicotinamide (Sigma-Aldrich, cat. N0636), 1X B-27 supplement (Thermo Fisher Scientific, cat. 17504044), 1X N-2 supplement (Thermo Fisher Scientific, cat. 17502048), and 10 microM Y-27632 dihydrochloride (Tocris Bioscience, Bristol, United Kingdom, cat. 1254). The 624824-186-R-J2-PDC line was cultured in 6C/Colon 1B media, which includes all 6A media components plus 50 ng/mL human EGF recombinant protein (Thermo Fisher Scientific, cat. PHG0311). […]

[1] = second compound 0.00316 µM, first compound 0.0316 µM
[2] = second compound 0.00316 µM, first compound 0.1 µM
[3] = second compound 0.00316 µM, first compound 0.316 µM
[4] = second compound 0.00316 µM, first compound 1 µM
[5] = second compound 0.00316 µM, first compound 3.16 µM
[6] = second compound 0.00316 µM, first compound 10 µM
[7] = second compound 0.01 µM, first compound 0.0316 µM
[8] = second compound 0.01 µM, first compound 0.1 µM
[9] = second compound 0.01 µM, first compound 0.316 µM
[10] = second compound 0.01 µM, first compound 1 µM
[11] = second compound 0.01 µM, first compound 3.16 µM
[12] = second compound 0.01 µM, first compound 10 µM
[13] = second compound 0.0316 µM, first compound 0.0316 µM
[14] = second compound 0.0316 µM, first compound 0.1 µM
[15] = second compound 0.0316 µM, first compound 0.316 µM
[16] = second compound 0.0316 µM, first compound 1 µM
[17] = second compound 0.0316 µM, first compound 3.16 µM
[18] = second compound 0.0316 µM, first compound 10 µM
[19] = second compound 0.1 µM, first compound 0.0316 µM
[20] = second compound 0.1 µM, first compound 0.1 µM
[21] = second compound 0.1 µM, first compound 0.316 µM
[22] = second compound 0.1 µM, first compound 1 µM
[23] = second compound 0.1 µM, first compound 3.16 µM
[24] = second compound 0.1 µM, first compound 10 µM
[25] = second compound 0.316 µM, first compound 0.0316 µM
[26] = second compound 0.316 µM, first compound 0.1 µM
[27] = second compound 0.316 µM, first compound 0.316 µM
[28] = second compound 0.316 µM, first compound 1 µM
[29] = second compound 0.316 µM, first compound 3.16 µM
[30] = second compound 0.316 µM, first compound 10 µM
[31] = second compound 1 µM, first compound 0.0316 µM
[32] = second compound 1 µM, first compound 0.1 µM
[33] = second compound 1 µM, first compound 0.316 µM
[34] = second compound 1 µM, first compound 1 µM
[35] = second compound 1 µM, first compound 3.16 µM
[36] = second compound 1 µM, first compound 10 µM
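Note: spheroids exposed to agents for seven days before readout.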

## CC1(C)CCC(CN2CCN(c3ccc(C(=O)NS(=O)(=O)c4ccc(NCC5CCOCC5)c([N+](=O)[O-])c4)c(Oc4cnc5[nH]ccc5c4)c3)CC2)=C(c2ccc(Cl)cc2)C1 + CC(Nc1ccc2c(c1)OCCn1cc(N3C(=O)OCC3C(F)F)nc1-2)C(N)=O
Second compound 0.00316 µM
  IC50: > 10 µM
Second compound 0.01 µM
  IC50: > 10 µM
Second compound 0.0316 µM
  IC50: > 10 µM
Second compound 0.1 µM
  IC50: > 10 µM
Second compound 0.316 µM
  IC50: > 10 µM
Second compound 1 µM
  IC50: > 10 µM
[1]
  viability, T/C: 109%
[2]
  viability, T/C: 94.4%
[3]
  viability, T/C: 92.3%
[4]
  viability, T/C: 87.3%
[5]
  viability, T/C: 86.3%
[6]
  viability, T/C: 84.2%
[7]
  viability, T/C: 92.4%
[8]
  viability, T/C: 85.5%
[9]
  viability, T/C: 101%
[10]
  viability, T/C: 83.2%
[11]
  viability, T/C: 93%
[12]
  viability, T/C: 74.5%
[13]
  viability, T/C: 95.5%
[14]
  viability, T/C: 96%
[15]
  viability, T/C: 94.3%
[16]
  viability, T/C: 96.2%
[17]
  viability, T/C: 96.9%
[18]
  viability, T/C: 77.2%
[19]
  viability, T/C: 87.7%
[20]
  viability, T/C: 96.1%
[21]
  viability, T/C: 87%
[22]
  viability, T/C: 97.1%
[23]
  viability, T/C: 90.4%
[24]
  viability, T/C: 73.7%
[25]
  viability, T/C: 85.2%
[26]
  viability, T/C: 83.8%
[27]
  viability, T/C: 93.9%
[28]
  viability, T/C: 88.3%
[29]
  viability, T/C: 81.2%
[30]
  viability, T/C: 74.1%
[31]
  viability, T/C: 93.7%
[32]
  viability, T/C: 82.3%
[33]
  viability, T/C: 85.8%
[34]
  viability, T/C: 89.6%
[35]
  viability, T/C: 82.6%
[36]
  viability, T/C: 72.8%

## C[C@@H](NC(=O)c1ncnc(N)c1Cl)c1ncc(C(=O)Nc2cc(C(F)(F)F)c(Cl)cn2)s1 + CC(Nc1ccc2c(c1)OCCn1cc(N3C(=O)OCC3C(F)F)nc1-2)C(N)=O
Second compound 0.00316 µM
  IC50: > 10 µM
Second compound 0.01 µM
  IC50: > 10 µM
Second compound 0.0316 µM
  IC50: > 10 µM
Second compound 0.1 µM
  IC50: > 10 µM
Second compound 0.316 µM
  IC50: > 10 µM
Second compound 1 µM
  IC50: > 10 µM
[1]
  viability, T/C: 98.9%
[2]
  viability, T/C: 84%
[3]
  viability, T/C: 99.5%
[4]
  viability, T/C: 108%
[5]
  viability, T/C: 93.8%
[6]
  viability, T/C: 90%
[7]
  viability, T/C: 95%
[8]
  viability, T/C: 76%
[9]
  viability, T/C: 103%
[10]
  viability, T/C: 103%
[11]
  viability, T/C: 108%
[12]
  viability, T/C: 89%
[13]
  viability, T/C: 80.3%
[14]
  viability, T/C: 102%
[15]
  viability, T/C: 100%
[16]
  viability, T/C: 116%
[17]
  viability, T/C: 96.7%
[18]
  viability, T/C: 79.3%
[19]
  viability, T/C: 90.3%
[20]
  viability, T/C: 93.1%
[21]
  viability, T/C: 102%
[22]
  viability, T/C: 93.8%
[23]
  viability, T/C: 103%
[24]
  viability, T/C: 69%
[25]
  viability, T/C: 87.7%
[26]
  viability, T/C: 85.9%
[27]
  viability, T/C: 91.7%
[28]
  viability, T/C: 93.6%
[29]
  viability, T/C: 84.5%
[30]
  viability, T/C: 76.6%
[31]
  viability, T/C: 77.7%
[32]
  viability, T/C: 84.6%
[33]
  viability, T/C: 95.4%
[34]
  viability, T/C: 93%
[35]
  viability, T/C: 83%
[36]
  viability, T/C: 63.6%
